System: spleen cells
Assay: Cytokine (IFN-γ, IL-4) production in mouse spleen cell culture, sandwich ELISA assay
Assay type: cell-based
Conditions: mouse spleen cells 2×10^5 cells/well, reagent at 2, 20 and 200 ng/mL, supernatant 4 days later, values only in FIG. 1-6
Description: The spleen cells removed from the spleen of mouse were individually prepared to 2×10^5 cells/well (96-well plate) using RPMI1640 culture medium (manufactured by Sigma Corporation) containing 10% fetal calf serum (FCS). A reagent was added to the culture medium at each of the concentrations of 2 ng/mL, 20 ng/mL and 200 ng/mL. The cytokine amount in the culture supernatant 4 days later was measured by sandwich ELISA assay. As the test substances, compounds 33 and 34 obtained in Examples 14 and 15 were used, and α-galactosylceramide represented by the following formula (a) (α-GC, abbreviated as compound a in the Figure) was used as a control substance. In addition, DMSO was used as a control.
The cytokine amount was measured by sandwich ELISA assay in the same manner as in Experimental Example 1 except that compound 23 obtained in Example 6 was used as a test substance. In addition, the time course changes in the amount of IFN-γ production are shown in FIG. 5, and the time course changes in the amount of IL-4 production are shown in FIG. 6.

## CCCCCCCCCCCCCCCCCCCCCCCCCC(=O)N1[C@@H](CCCCCCCCCCCCCC)[C@@H](O)[C@@H]1COC1OC(CO)C(O)C(O)C1O (stereo partly shown) [compound 23]
  cytokine production pattern (IFN-γ and IL-4 production amount in culture supernatant): ability to preferentially induce IL-4 production

## CCCCCCCCCCCCCCCCCCCCCCCCCC(=O)N1[C@@H](CCCCCCCCCCCCC)C[C@@H](O)[C@@H]1COC1OC(CO)C(O)C(O)C1O (stereo partly shown) [compound 33]
  cytokine production pattern (IFN-γ and IL-4 production amount in culture supernatant): IL-4 preferential cytokine production pattern

## CCCCCCCCCCCCCCCCCCCCCCCCCC(=O)N1[C@@H](CCCCCCCCCCCCC)C[C@@H](O)[C@@H]1COC1OC(CO)C(O)C(O)C1O (stereo partly shown) [compound 34]
  cytokine production pattern (IFN-γ and IL-4 production amount in culture supernatant): IL-4 preferential cytokine production pattern

## CCCCCCCCCCCCCCCCCCCCCCCCCC(=O)N[C@@H](COC1OC(CO)C(O)C(O)C1O)[C@H](O)[C@H](O)CCCCCCCCCCCCCC (stereo partly drawn) [α-galactosylceramide, reference compound]
  cytokine production pattern (IFN-γ and IL-4 production amount in culture supernatant): produced both IFN-γ and IL-4 in large amounts
